In patent US6610791B2, “Photosensitive compound and photosensitive resin” (Toyo Gosai Kogyo Co., Ltd., priority 2000, dated 2003):

Test: Measurement of solubility in water at 25° C.
Type: physicochemical
Procedure: Measurement of [5-(sodium 4-azidobenzylidene-2-sulfonate)-3-(N-(4,4′-dimethoxybutyl)carbamoyl)methyl]-rhodanine in Terms of Solubility in Water and Molar Absorption Coefficient
Measurement of solubility in water at 25° C. was carried out for the compound obtained in Example 3 or 6, and for the compound, which was obtained through the method of Example 2 described in Japanese Patent Application Laid-Open (kokai) No. 10-310769, represented by the following formula. [drawing 17]
Further, UV spectra were measured for the two compounds in water serving as a solvent so as to measure the molar absorption coefficient ε at a wavelength of maximum absorption.

In the case of “[5-(sodium 4-azidobenzylidene-2-sulfonate)-3-(N-(4,4′-dimethoxybutyl)carbamoyl)methyl]rhodanine”, the solubility in water (in 100 g of water) is reported as 5.4 g and the “solubility of the former compound relative to the latter (reference) compound” value (water, ratio of the invention compound to the reference compound) is reported as “approximately five”.
